Experimental data taken from patent US20110039763A1, “TARGETED ANTIMICROBIAL MOIETIES” (C3 JIAN, INC., priority 2009, published 2011).

Tests used:
microorganisms [1] = assay: Morphology, biofilm and growth disrupting peptides (Table 5); assay type: cell-based; parameters: key: A: Peptide aggregates; B: Less hyphal formation; Clumps; Diffuse clumps and small polyps; F: Diffuse growth; H: Thin; I: Growth inhibition; Microcolony formation; Rippled; Small polyps; Thick; W: Halo formation on top, microlonies on bottom
From the text: In certain embodiments peptides that induce alterations in phenotype or other biological activities can also be used as antimicrobial effector moieties.

microorganisms [2] = assay: Peptide activities: targeting/binding, antimicrobial, growth or phenotype altering (Tables 7, 8); assay type: cell-based; conditions: peptides having multiple activities
From the text: In certain embodiments, peptides described herein can have multiple activities. Thus for example, a peptide can have both binding/targeting activity and antimicrobial activity. Such peptides can be used, e.g., in a chimeric construct, for any or all of these properties. Thus, for example, a peptide designated “B” in Table 8 can be used as a targeting peptide. If it is also designated G or M it can also be used for antimicrobial activity.
Table 8. Peptides Having Multiple Activities. B: Targeting/Binding Activity; M: Antimicrobial Activity; G: GROWTH or Phenotype Altering.

microorganisms [3] = assay: Targeting peptide binding to target microorganisms (Tables 3, 10, 12); conditions: microorganism(s) the targeting peptide binds; binding in aqueous buffers varied with peptide solubility, preferably 1x PBS

Row | Substance | Organism, effect: C. jejuni (microorganisms [1]) | Organism, effect: MRSA (microorganisms [1]; MRSA) | Organism, effect: S. epidermidis (microorganisms [1]; S. epidermidis) | Organism, effect: S. pneumoniae (microorganisms [1]; S. pneumoniae) | Activities (microorganisms [2]) | Organism, effect: M. luteus (microorganisms [1]; M. luteus) | Organism, effect: C. jeikeium (microorganisms [1]) | other results
1 | ALCSVIKAIELGIINVHLQ [PF-366] | C. jejuni (D) | MRSA (D) | S. epidermidis (R) | S. pneumoniae (C) | G B |  |  | Organism, effect: E. coli (microorganisms [1]): E. coli (C); Organism, effect: E. faecalis (microorganisms [1]): E. faecalis (C); Organism, effect: P. aeruginosa (microorganisms [1]): P. aeruginosa (A)
2 | EILNNNQVIKELTMKYKTQFESNLGGWTARARR [PF-580] |  |  |  |  | G B |  |  | Organism, effect (microorganisms [1]; M. luteus): M. luteus (C); Organism, effect (microorganisms [1]; MRSA): MRSA (M); Organism, effect (microorganisms [1]; S. epidermidis): S. epidermidis (M); Organism, effect (microorganisms [1]; S. pneumoniae): S. pneumoniae (C)
3 | MGIIAGIIKVIKSLIEQFTGK [PF-007] |  | MRSA (R) | S. epidermidis (A) |  | G B | M. luteus (A) |  | Organism, effect: E. coli (microorganisms [1]): E. coli (A); Organism, effect: E. faecalis (microorganisms [1]): E. faecalis (A)
4 | MIHLTKQNTMEALHFIKQFYDMFFILNFNV [PF-040] | C. jejuni (D) | MRSA (D) | S. epidermidis (D) | S. pneumoniae (D) | G B | M. luteus (D) | C. jeikeium (D) | Organism, effect: B. subtilis (microorganisms [1]): B. subtilis (D); Organism, effect: E. coli (microorganisms [1]): E. coli (C); Organism, effect: P. mirabilis (microorganisms [1]; P. mirabilis): P. mirabilis (C); Organism, effect: S. mutans (microorganisms [1]; S. mutans, class symbol): S. mutans (F)
5 | PF-001: peptide having multiple activities (MNNWIIVAQLSVTVINEIIDIMKEKQKGGK; Peptide with targeting and/or antimicrobial activity) |  | MRSA (R) | S. epidermidis (C) |  | G B | M. luteus (C) | C. jeikeium (D) | 
6 | PF-004: peptide having multiple activities (ARLSKAIIIAVIVVYHLDVRGLF; Peptide with targeting and/or antimicrobial activity) |  | MRSA (R) | S. epidermidis (A) |  | G B | M. luteus (A) | C. jeikeium (A) | 
7 | PF-012: peptide having multiple activities (WRGPNTEAGGKSANNIVQVGGAPT; Peptide with targeting and/or antimicrobial activity) |  | MRSA (R) | S. epidermidis (S) |  | G B | M. luteus (C) | C. jeikeium (A) | 
8 | PF-022: peptide having multiple activities (MINELKNKNSGIMNNYVVTKESKL; Peptide with targeting and/or antimicrobial activity) |  | MRSA (R) | S. epidermidis (D) |  | G B | M. luteus (A) | C. jeikeium (A) | 
9 | PF-030: peptide having multiple activities (MTCHQAPTTTHQSNMA; Peptide with targeting and/or antimicrobial activity) |  | MRSA (R) | S. epidermidis (D) |  | G B | M. luteus (C) | C. jeikeium (C) | 
10 | PF-042: peptide having multiple activities (LLLSYFRYTGALLQSLF; Peptide with targeting and/or antimicrobial activity) |  | MRSA (R) | S. epidermidis (D) |  | G B | M. luteus (C) | C. jeikeium (S) | 
11 | PF-057: peptide having multiple activities (TMIVISIPRFEEYMKARHKKWM; Peptide with targeting and/or antimicrobial activity) | C. jejuni (D) | MRSA (M) | S. epidermidis (D) | S. pneumoniae (R) | G B | M. luteus (C) | C. jeikeium (A) | Organism, effect: C. albicans (microorganisms [1]): C. albicans (A); Organism, effect: E. coli (microorganisms [1]): E. coli (M); Organism, effect: E. faecalis (microorganisms [1]): E. faecalis (A)
12 | PF-063: peptide having multiple activities (IAAIIVLVLFQKGLLQIFNWILIQLQ; Peptide with targeting and/or antimicrobial activity) | C. jejuni (D) | MRSA (M) | S. epidermidis (R) | S. pneumoniae (D) | G B | M. luteus (R) | C. jeikeium (D) | Organism, effect: B. subtilis (microorganisms [1]): B. subtilis (C); Organism, effect: P. aeruginosa (microorganisms [1]): P. aeruginosa (A)
13 | PF-067: peptide having multiple activities (DLIVKVHICFVVKTASGYCYLNKREAQAAI; Peptide with targeting and/or antimicrobial activity) | C. jejuni (D) | MRSA (M) | S. epidermidis (D) | S. pneumoniae (D) | G B | M. luteus (R) | C. jeikeium (D) | Organism, effect: B. subtilis (microorganisms [1]): B. subtilis (C); Organism, effect: P. aeruginosa (microorganisms [1]): P. aeruginosa (A)
14 | PF-076: peptide having multiple activities (chain 1 LYQYELLSKEEYLKCTLIINQRRNEQK; chain 2 LYQYELLSKEEYLKCTLIINQRRNEQK; Peptide with targeting and/or antimicrobial activity) |  | MRSA (R) | S. epidermidis (S) |  | G B | M. luteus (A) | C. jeikeium (A) | 
15 | PF-125: peptide having multiple activities (chain 1 YVVGALVILAVAGLIYSMLRKA; chain 2 YVVGALVILAVAGLIYSMLRKA; Peptide with targeting and/or antimicrobial activity) |  |  | S. epidermidis (D) |  | G B | M. luteus (C) |  | 
16 | PF-139: peptide having multiple activities (chain 1 ALSKPAIQARTLCRRQDPP; chain 2 ALSKPAIQARTLCRRQDPP; Peptide with targeting and/or antimicrobial activity) |  |  | S. epidermidis (M) |  | G B | M. luteus (C) | C. jeikeium (R) | 
17 | PF-140: peptide having multiple activities (chain 1 FHRRVIRASEWALTTRSFSTPLRSAAR; chain 2 FHRRVIRASEWALTTRSFSTPLRSAAR; Peptide with targeting and/or antimicrobial activity) | C. jejuni (D) | MRSA (M) | S. epidermidis (D) | S. pneumoniae (D) | G B | M. luteus (R) | C. jeikeium (D) | Organism, effect: C. albicans (microorganisms [1]): C. albicans (B); Organism, effect: P. aeruginosa (microorganisms [1]): P. aeruginosa (A)
18 | PF-704 (APAARAAL; Peptide with targeting and/or antimicrobial activity) |  |  |  |  |  |  |  | Organism, effect (microorganisms [1]; S. pneumoniae): S. pneumoniae (C); Target(s) (microorganisms [3]): Mycobacteria spp
